Experimental data reported in ChEMBL document CHEMBL1201862, “PubChem BioAssay data set” (2004).
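Protocol summary: plate cells (96-well), add compound at 5 concentrations, incubate 48 h, interpolate endpoints linearly. Abbreviation: GI50, concentration required for 50% inhibition of growth.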 The source made the active and inactive calls. No stated cut-off is given here; in the data, active = GI50 up to about 1.1 µM and inactive = higher.

Key:
Assay in all cases: DTP human tumour cell line panel, 48 h
[1] = test system: DLD-1
[2] = test system: XF498
[3] = test system: DMS-114
[4] = test system: M19-MEL
[5] = test system: HOP-18
[6] = test system: SNB-78
[7] = test system: DMS-273
[8] = test system: KM-20L2
[9] = test system: RXF 631

COc1ccc2c(c1)[n+]([O-])c(C(C)=O)c(C)[n+]2[O-]
GI50 [1]: > 100 µM (inactive)
GI50 [2]: > 100 µM (inactive)
GI50 [3]: > 100 µM (inactive)
GI50 [4]: > 100 µM (inactive)
GI50 [5]: > 100 µM (inactive)
GI50 [6]: > 100 µM (inactive)

N/C(=N\O)N/N=C/c1cc2c(cc1Cl)OCO2
GI50 [1]: 42.8 µM (inactive)
GI50 [7]: 18.6 µM (inactive)
GI50 [3]: > 100 µM (inactive)
GI50 [4]: > 56.9 µM (inactive)
GI50 [8]: 35.8 µM (inactive)
GI50 [5]: 56.2 µM (inactive)
GI50 [6]: > 68.2 µM (inactive)

CC1(CO)OC(n2cnc3c(N)ncnc32)C(O)C1O (stereo not given)
GI50 [1]: > 100 µM (inactive)
GI50 [7]: > 10 µM (inactive)
GI50 [3]: > 100 µM (inactive)
GI50 [4]: > 100 µM (inactive)
GI50 [5]: > 100 µM (inactive)

O=C(CCCN1CCC(C(O)c2ccc(F)cc2)CC1)c1ccc(F)cc1 (stereo not given)
GI50 [1]: 51.8 µM (inactive)
GI50 [2]: 4.46 µM (inactive)
GI50 [7]: 63.5 µM (inactive)
GI50 [3]: 49.7 µM (inactive)
GI50 [4]: 59.6 µM (inactive)
GI50 [8]: 41.7 µM (inactive)
GI50 [5]: 66.8 µM (inactive)
GI50 [6]: 56.9 µM (inactive)

COc1ccc2c(c1)OC[C@@H]1c3cc(O)c(OCc4ccccc4)cc3O[C@H]21
GI50 [1]: 36.1 µM (inactive)
GI50 [2]: 26.2 µM (inactive)
GI50 [7]: 40.6 µM (inactive)
GI50 [3]: 19.5 µM (inactive)
GI50 [4]: 27 µM (inactive)
GI50 [8]: 33.9 µM (inactive)
GI50 [9]: 45.2 µM (inactive)
GI50 [5]: > 100 µM (inactive)
GI50 [6]: 19.7 µM (inactive)

CC1(C)OC2OC(COC(=O)C(c3ccccc3)c3ccccc3)C3OC(C)(C)OC3C2O1 (stereo not given)
GI50 [1]: 7.98 µM (inactive)
GI50 [2]: 14.7 µM (inactive)
GI50 [7]: 9.02 µM (inactive)
GI50 [3]: 22.2 µM (inactive)
GI50 [4]: 66.7 µM (inactive)
GI50 [8]: 50.2 µM (inactive)
GI50 [5]: > 10 µM (inactive)

Clc1cc(Cl)cc(C2SCc3nc4ccccc4n32)c1 (stereo not given)
GI50 [1]: > 10 µM (inactive)
GI50 [7]: 7.28 µM (inactive)
GI50 [3]: 13.6 µM (inactive)
GI50 [9]: 14.2 µM (inactive)
GI50 [5]: 28.4 µM (inactive)
GI50 [6]: 6.03 µM (inactive)

O=c1[nH]cnc2c(COCCCO)c[nH]c12
GI50 [1]: > 100 µM (inactive)
GI50 [3]: > 100 µM (inactive)
GI50 [4]: > 100 µM (inactive)
GI50 [8]: > 100 µM (inactive)
GI50 [5]: > 100 µM (inactive)
GI50 [6]: > 100 µM (inactive)

Cn1nc(-c2ccccc2)c(C(=O)/C=C/c2ccccc2)c(N2CCCC2)c1=O
GI50 [1]: 12.1 µM (inactive)
GI50 [2]: 18.8 µM (inactive)
GI50 [7]: 14.7 µM (inactive)
GI50 [3]: 11.4 µM (inactive)
GI50 [4]: 16.6 µM (inactive)
GI50 [8]: 14.5 µM (inactive)
GI50 [9]: 29 µM (inactive)
GI50 [5]: 16.4 µM (inactive)

Cc1ccc(S(=O)(=O)OCCOCCOCCOCCOCCOS(=O)(=O)c2ccc(C)cc2)cc1
GI50 [1]: 60.8 µM (inactive)
GI50 [7]: 28.6 µM (inactive)
GI50 [4]: 30.3 µM (inactive)
GI50 [8]: 59.2 µM (inactive)
GI50 [9]: 27.1 µM (inactive)
GI50 [5]: 65.3 µM (inactive)
GI50 [6]: 83.9 µM (inactive)

CCN(CC)CCn1nc2c3c(c(NCCN)ccc31)Sc1cc(O)ccc1-2
GI50 [1]: 1.25 µM (inactive)
GI50 [2]: 0.128 µM (active)
GI50 [7]: 0.417 µM (active)
GI50 [3]: 0.31 µM (active)
GI50 [4]: 0.347 µM (active)
GI50 [5]: 1.62 µM (inactive)
GI50 [6]: 0.877 µM (active)

COC(=O)C1CCC(=O)C(Sc2ccccc2)C1 (stereo not given)
GI50 [1]: > 100 µM (inactive)
GI50 [2]: > 100 µM (inactive)
GI50 [7]: > 100 µM (inactive)
GI50 [3]: 68.1 µM (inactive)
GI50 [4]: 62.1 µM (inactive)
GI50 [8]: > 100 µM (inactive)
GI50 [5]: > 100 µM (inactive)
GI50 [6]: > 100 µM (inactive)

CN(c1ccc(C(=O)c2ccc(N(C)S(C)(=O)=O)cc2)cc1)S(C)(=O)=O
GI50 [1]: > 100 µM (inactive)
GI50 [3]: 14.1 µM (inactive)
GI50 [4]: > 100 µM (inactive)
GI50 [8]: > 100 µM (inactive)
GI50 [6]: > 100 µM (inactive)

c1ccc(C2N3CCCCC3[C@@H]3c4[nH]c5ccccc5c4CCN23)cc1 (stereo not given in full)
GI50 [1]: 54.1 µM (inactive)
GI50 [2]: > 100 µM (inactive)
GI50 [7]: 50.7 µM (inactive)
GI50 [3]: 38.7 µM (inactive)
GI50 [4]: 58.2 µM (inactive)
GI50 [8]: > 100 µM (inactive)
GI50 [5]: > 100 µM (inactive)
GI50 [6]: 47.5 µM (inactive)

CCCCCCCCCCCCNC(=S)OC
GI50 [1]: 15 µM (inactive)
GI50 [2]: 16.6 µM (inactive)
GI50 [7]: 15.4 µM (inactive)
GI50 [3]: 4.63 µM (inactive)
GI50 [4]: 17.9 µM (inactive)
GI50 [8]: 16.3 µM (inactive)
GI50 [5]: 17 µM (inactive)
GI50 [6]: 21.5 µM (inactive)

Cc1c2c(cc3c1[nH]c1ccccc13)C(c1ccc(Cl)cc1)=NCC2
GI50 [1]: 0.452 µM (active)
GI50 [2]: 0.0973 µM (active)
GI50 [7]: 0.237 µM (active)
GI50 [3]: 0.347 µM (active)
GI50 [4]: 0.726 µM (active)
GI50 [8]: 0.301 µM (active)
GI50 [5]: 3.99 µM (inactive)
GI50 [6]: 0.682 µM (active)

Cn1c(=O)c2nc3sc4c(n3c2n(C)c1=O)C(=O)c1ccccc1C4=O
GI50 [1]: > 100 µM (inactive)
GI50 [2]: > 100 µM (inactive)
GI50 [7]: > 100 µM (inactive)
GI50 [3]: > 100 µM (inactive)
GI50 [4]: > 86.7 µM (inactive)
GI50 [8]: > 100 µM (inactive)
GI50 [9]: > 100 µM (inactive)
GI50 [5]: 0.433 µM (active)
GI50 [6]: > 100 µM (inactive)

COc1ccc(C(=O)c2c3cc(OC)c(OC)c(OC)c3cc[n+]2C)cc1
GI50 [1]: 17.1 µM (inactive)
GI50 [2]: 15 µM (inactive)
GI50 [3]: 23.7 µM (inactive)
GI50 [4]: 24.1 µM (inactive)
GI50 [8]: 28.3 µM (inactive)
GI50 [9]: 37.4 µM (inactive)
GI50 [5]: 20.6 µM (inactive)
GI50 [6]: 38.5 µM (inactive)
